Like-named read-outs stand apart in the source and are kept apart here.
Experiments:
[1] = target: human mGluR5 (Homo sapiens, UniProt P41594); assay: Cell-based functional Ca2+ mobilization assay (FDSS), potentiation of glutamate EC20 response
From the text: Human mGluR5a cDNA in pCMV6-XL6 mammalian expression plasmid was purchased from OriGene Technologies, Inc. (catalogue number SC326357) and subcloned into pcDNA3.1(-). Human embryonic kidney (HEK)293A cells were then transfected with human mGluR5a pcDNA3.1(-) using LipofectAmine-2000 (Invitrogen) and monoclones were selected and tested for functional response using a Ca^2+ mobilization assay. Monoclones were named for the species (“H” for human) plus the location on the plate (e.g. “10H”). […] Cell-lines used were either the H10H or […] cell-lines expressing the human mGluR5 receptor. The following day, the growth medium was removed and the cells were washed with assay buffer containing 1× Hank's balanced salt solution (Invitrogen, Carlsbad, Calif.), 20 mM HEPES, 2.5 mM probenecid, pH 7.4 and left with 20 μL of this reagent. Following this step, the cells were loaded with calcium indicator dye, fluo-4 AM, to a final concentration of 2 μM and incubated for 40-45 min at 37° C. The dye solution was removed and replaced with assay buffer. Cell plates were held for 10-15 min at room temperature and were then loaded into the Functional Drug Screening System 6000 (FDSS 6000, Hamamatsu, Japan). […] Calcium fluorescence measures were recorded as fold over basal fluorescence; raw data was then normalized to the maximal response to glutamate. […] The concentration-response curves of compounds of the present invention, obtained in the presence of EC20 of mGluR5 receptor agonist glutamate to determine positive allosteric modulation, were generated using Microsoft Excel with IDBS XLfit add-ins. The raw data file containing all time points was used as the data source in the analysis template. This was saved by the FDSS as a tab-delimited text file. Data were normalized using a static ratio function (F/F0) for each measurement of the total 350 values per well divided by each well's initial value. […] This is sufficient time to capture the peak amplitude of the cellular Calcium response. […] Each of the three values collected at each concentration of test compound were weighted evenly. Individual values falling outside the 95% prediction limits of the curve fit were automatically excluded from the fit. […] These two methods are in good agreement for curves with a clear plateau at the high concentration range. […] For consistency purposes across the range of potencies observed, all EMax values reported in this application are calculated using the maximum average response at a single concentration. The % EMax value for each compound reported in this application is defined as the maximum % effect obtained in a concentration-response curve of that compound expressed as a percent of the response of a maximally effect concentration of glutamate. […] Table IV below lists specific compounds as well as experimentally determined mGluR5 activity determined in a cell-based. The mGluR5 activity was determined using the metabotropic glutamate receptor activity assays in human embryonic kidney cells as described herein, wherein the human embryonic kidney cells were transfected with human mGluR5. The data in Table III were obtained using the H10H cell-line which expresses recombinant human mGluR5. The compound number corresponds to the compound numbers used in Table I.

[2] = system: amphetamine-induced hyperlocomotion; assay: Reversal of amphetamine-induced hyperlocomotion in rat; type: in vivo; conditions: male Sprague-Dawley rats; compound p.o.; amphetamine 1 mg/kg s.c.
Protocol: The study was carried out using male Sprague-Dawley rats weighing 225 g-275 g, between 2-3 months old (Harlan, Inc., Indianapolis, Ind.). They were kept in the animal care facility certified by the American Association for the Accreditation of Laboratory Animal Care (AALAC) under a 12-hour light/dark cycle (lights on: 6 a.m.; lights off: 6 p.m.) and had free access to food and water. The experimental protocols performed during the light cycle were approved by the Institutional Animals Care and Use Committee of Vanderbilt University and conformed to the guidelines established by the National Research Council Guide for the Care and Use of Laboratory Animals.
Locomotor activity was assessed as mean distance traveled (cm) in Smart Open Field locomotor activity test chambers (Hamilton-Kinder, San Diego, Calif.) with 16×16 photobeams with chambers measuring 43.2 cm (Length)×43.2 cm (Width)×30.5 cm (Height) (Med Associates, St. Albans, Vt.). […] At 60 min, all rats were injected subcutaneously with 1 mg/kg amphetamine or vehicle and then monitored for an additional 60 min. Animals are monitored for a total of 120 minutes.
Data are expressed as the mean (±SEM) distance traveled recorded in 5 min intervals over the test period. The data was analyzed using repeated measures analysis of variance (ANOVA) followed by post-hoc testing using Dunnett's test, when appropriate. […]

[3] = H10H cell-line, maximum % effect as percent of response to maximally effective glutamate, glutamate EC20 present, read-out: Emax (%)
[4] = H10H cell-line, potentiation in presence of glutamate EC20

human mGluR5, sequence (P41594 21-1180 isoform P41594-2 limits assumed): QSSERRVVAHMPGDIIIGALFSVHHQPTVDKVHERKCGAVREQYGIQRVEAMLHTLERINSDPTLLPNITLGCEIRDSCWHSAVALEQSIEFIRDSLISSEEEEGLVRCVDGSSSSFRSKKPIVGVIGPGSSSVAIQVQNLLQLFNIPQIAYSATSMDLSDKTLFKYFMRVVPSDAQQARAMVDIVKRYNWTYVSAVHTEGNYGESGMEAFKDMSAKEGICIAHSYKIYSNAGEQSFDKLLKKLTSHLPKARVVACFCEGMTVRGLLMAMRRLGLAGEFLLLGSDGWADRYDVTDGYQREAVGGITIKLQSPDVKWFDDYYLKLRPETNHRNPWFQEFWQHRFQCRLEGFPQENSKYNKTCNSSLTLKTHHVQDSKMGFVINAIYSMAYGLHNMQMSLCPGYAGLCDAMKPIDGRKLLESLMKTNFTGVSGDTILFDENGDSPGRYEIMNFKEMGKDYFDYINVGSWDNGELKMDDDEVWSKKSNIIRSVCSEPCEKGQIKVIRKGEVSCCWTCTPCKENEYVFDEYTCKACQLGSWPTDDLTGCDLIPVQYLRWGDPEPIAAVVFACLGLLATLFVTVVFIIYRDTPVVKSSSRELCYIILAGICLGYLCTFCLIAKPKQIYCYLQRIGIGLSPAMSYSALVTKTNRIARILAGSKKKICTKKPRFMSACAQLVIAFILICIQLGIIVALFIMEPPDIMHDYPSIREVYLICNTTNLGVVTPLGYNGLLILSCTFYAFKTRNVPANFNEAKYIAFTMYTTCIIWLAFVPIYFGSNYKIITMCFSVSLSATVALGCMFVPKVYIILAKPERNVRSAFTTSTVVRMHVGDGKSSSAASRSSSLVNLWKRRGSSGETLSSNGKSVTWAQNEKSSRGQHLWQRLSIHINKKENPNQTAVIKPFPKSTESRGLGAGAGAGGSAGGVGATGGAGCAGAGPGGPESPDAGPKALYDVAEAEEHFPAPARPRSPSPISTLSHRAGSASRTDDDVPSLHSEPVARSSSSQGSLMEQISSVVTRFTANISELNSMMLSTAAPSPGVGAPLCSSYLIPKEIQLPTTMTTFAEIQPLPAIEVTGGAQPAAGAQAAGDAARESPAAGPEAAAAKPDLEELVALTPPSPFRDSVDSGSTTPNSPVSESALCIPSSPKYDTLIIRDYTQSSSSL

| Structure (SMILES) | Emax [1, 3] | EC50 [1, 4] | also measured |
| --- | --- | --- | --- |
| O=C1c2cc(COc3ccccc3)nn2CCN1C1CCOC1 (racemic) [Compound 12] | 25% | ≥ 10 µM | – |
| O=C1c2cc(COc3ccccc3)nn2CCN1CC1CCCCC1 [Compound 18] | 79% | 0.0525 µM | – |
| C[C@@H]1Cn2nc(COc3ccccc3)cc2C(=O)N1CC1CCC1 [Compound 6] | 76% | 0.0912 µM | – |
| O=C1c2cc(COc3ccccc3)nn2CCN1C1CCCCC1 [Compound 13, 5-cyclohexyl-2-(phenoxymethyl)-6,7-dihydropyrazolo[1,5-a]pyrazin-4(5H)-one] | 58% | 0.145 µM | – |
| O=C1c2cc(COc3ccccc3)nn2CCN1C1CCCOC1 (racemic) [Compound 20] | 52% | ≥ 10 µM | – |
| CC1(C)CN(CC2CC2)C(=O)c2cc(COc3ccccc3)nn2C1 [Compound 24] | 38% | ≥ 10 µM | melting point: 96.5 °C |
| CC1CCn2nc(COc3ccccc3)cc2C(=O)N1CC1CC1 (stereo not shown) [Compound 23] | 57% | 0.398 µM | melting point: 68.6 °C |
| O=C1c2cc(COc3ccccc3)nn2CCN1C1CCOCC1 [Compound 11] | 46% | ≥ 10 µM | – |
| O=C1c2cc(COc3ccccc3)nn2CCN1C1Cc2ccccc2C1 [Compound 17] | 77% | 0.0589 µM | – |
| O=C1c2cc(COc3ccccc3)nn2CCN1CC1CC1(F)F (stereo in doubt) [Compound 2, (S)-5-((2,2-difluorocyclopropyl)methyl)-2-(phenoxymethyl)-6,7-dihydropyrazolo[1,5-a]pyrazin-4(5H)-one] | – | – | reversal of amphetamine-induced hyperlocomotion [2]: effective in reducing amphetamine-induced hyperlocomotion |
| CC1(C)CCC(N2CCn3nc(COc4ccccc4)cc3C2=O)CC1 [Compound 16] | 71% | 0.0977 µM | – |
| O=C1c2cc(COc3ccccc3)nn2CCN1CC1CC(F)(F)C1 [Compound 32] | – | – | Emax (%) ([1]; H10H cell-line, maximum % effect as percent of response to maximally effective glutamate, glutamate EC20 present): 73%; pEC50 [1, 4]: 6.19 |
| O=C1c2cc(COc3ccccc3)nn2CCN1C[C@@H]1CC1(F)F [Compound 2, (S)-5-((2,2-difluorocyclopropyl)methyl)-2-(phenoxymethyl)-6,7-dihydropyrazolo[1,5-a]pyrazin-4(5H)-one] | 65% | 0.38 µM | – |
| O=C1c2cc(COc3ccccc3)nn2CCN1C1CCC1 [Compound 9] | 29% | 0.324 µM | – |
| CC1(CN2CCn3nc(COc4ccccc4)cc3C2=O)COC1 [Compound 31] | 71% | 1.1 µM | – |
| O=C1c2cc(COc3ccccc3)nn2CCN1C1COC1 [Compound 8] | 30% | > 10 µM | – |
| O=C1c2cc(COc3ccccc3)nn2CCCN1CC1CC1 [Compound 22, 5-(cyclopropylmethyl)-2-(phenoxymethyl)-5,6,7,8-tetrahydro-4H-pyrazolo[1,5-a][1,4]diazepin-4-one] | 59% | 0.38 µM | melting point: 126.4 °C |
| CC1CN(CC2CC2)C(=O)c2cc(COc3ccccc3)nn2C1 (stereo not shown) [Compound 28] | 30% | > 30.2 µM | melting point: 67.4 °C |
| O=C1c2cc(COc3ccccc3)nn2CCCN1CC1CC1(F)F (racemic) [Compound 25] | 58% | 0.389 µM | melting point: 102.2 °C |
| O=C1c2cc(COc3ccccc3)nn2CCN1CC1CC(F)(F)C1 [Compound 10] | 72% | 0.646 µM | – |
| O=C1c2cc(COc3ccccc3)nn2CCN1[C@H]1CCNC1 [Compound 34] | 24% | > 30.2 µM | – |
| O=C1c2cc(COc3ccccc3)nn2CCN1[C@H]1CCCNC1 [Compound 33] | – | > 30.2 µM | Emax [1]: 19% |
| O=C1c2cc(COc3ccccc3)nn2CCN1C1CCNCC1 [Compound 37] | 22% | > 30.2 µM | – |
| O=C1c2cc(COc3ccccc3)nn2CCN1C[C@H]1CC1(F)F [Compound 1, (R)-5-((2,2-difluorocyclopropyl)methyl)-2-(phenoxymethyl)-6,7-dihydropyrazolo[1,5-a]pyrazin-4(5H)-one] | 55% | 0.234 µM | reversal of amphetamine-induced hyperlocomotion [2]: effective in reducing amphetamine-induced hyperlocomotion |
| O=C1c2cc(COc3ccccc3)nn2CCN1C1CCCC1 [Compound 7] | 48% | 0.195 µM | – |
| C[C@@H]1Cn2nc(COc3ccccc3)cc2C(=O)N1CC1CC1(F)F (stereo partly shown) [Compound 4] | 72% | 0.871 µM | – |
| O=C1c2cc(COc3cccc(F)c3)nn2CCN1C[C@@H]1CC1(F)F [Compound 21] | 65% | 0.11 µM | – |
| O=C1c2cc(COc3cccc(F)c3)nn2CCN1C[C@H]1CC1(F)F [Compound 14, (R)-5-((2,2-difluorocyclopropyl)methyl)-2-((3-fluorophenoxy)methyl)-6,7-dihydropyrazolo[1,5-a]pyrazin-4(5H)-one] | 51% | 0.158 µM | – |

Source: patent US20130345204A1, “SUBSTITUTED BICYCLIC CYCLOALKYL PYRAZOLE LACTAM ANALOGS AS ALLOSTERIC MODULATORS OF MGLUR5 RECEPTORS” (Vanderbilt University, priority 2012, published 2013)
